The source of these data is publication PMC9887155, “Kinetics of cone specific G-protein signaling in avian photoreceptor cells” (Frontiers in Molecular Neuroscience, 2023).

Entries after “also recorded” stand apart in the source; their conditions may differ. Ends that are not written are not given here.

Data set [1] concerns Gtα/Giα chimera (cone specific G protein α-subunit). Nature of the data set: SPR interaction of LWO peptides with immobilized Gtα/Giα chimera. The class given is binding, European robin (Erithacus rubecula). The conditions noted are these: for binding to Gtα/Giα (qualitative): immobilized Gtα/Giα, pH 7.4. As for the experimental part:
The peptides representing the cytoplasmic loops of LWO (Figure 1) were purchased from Genscript (Netherlands). Sequences of the peptides were deduced from genetic sequences of the European robin genome ([Dunn et al., 2021]). Two control peptides were ordered containing scrambled sequences of LWO2 and LWO3 assigned as LWO2-sc and LWO3-sc, respectively (Table 1). To the N-terminus of each peptide, a linker (CGAGA or CGAGAG) was added to allow for specific covalent coupling via cysteine. All peptides were ordered to a purity of >90% and contained no further N-terminal modifications. The C-terminus of peptides LWO-1-3 were amidated to simulate a continuation of the peptide chain, while LWO-4 was left unmodified to represent the opsin C-terminus. Quality control by LC–MS was performed by Genscript, and concentrations of the peptides were confirmed by UV–vis measurements.
We used a Gtα/Giα chimera to allow functional expression in E. coli according to previous attempts with bovine Gtα ([Skiba et al., 1996]). Cloning of the Gtα variants was performed by PCR mutagenesis of the plasmid described in [Görtemaker et al. (2022)]. In short, the construct contained an N-terminal 6x histidine tag and SUMO (Small Ubiquitin like MOdifier) protein (for metal affinity purification and subsequent tag cleavage) followed by the Gtα chimera. Truncation of 3 and 6 amino acids was performed using the primers 1 and 2 and 1 and 3, respectively. Sequences are available in Supplementary Table S1. The truncated variants were expressed following the same protocol as the full-length protein.
Purification of the Gtα/Giα chimera was performed as exactly described previously ([Görtemaker et al., 2022]). We used the same procedure for purification of the truncated Gtα variants, but we excluded the final size exclusion chromatography. Protein samples were analyzed by standard analytical techniques such as sodium dodecyl-sulfate polyacrylamide gel electrophoresis (SDS-PAGE) and protein quantification according to established procedures in the laboratory ([Elbers et al., 2018]).
Surface plasmon resonance (SPR) measurements were performed on a Biacore 3,000 (GE Healthcare now Cytiva). We followed the general operation principle that had been described before ([Koch, 2000]; [Komolov et al., 2009]). In the present work, we immobilized the non-myristoylated Gtα/Giα chimera or its truncated variants using CM5 sensor chips (GE Healthcare) for all applications exactly as previously described ([Görtemaker et al., 2022]). Immobilization densities of Gtα/Giα were 2.6–3.4 ng/mm^2. The truncated variants Gt-3AA and Gt-6AA bound to the senor chip surface at densities of 3.1–4.2 ng/mm^2. First, we studied the interaction processes by injection of peptides representing the cytoplasmic regions in LWO (Table 1). Two peptides made from the amino acids present in LWO2 and LWO3, but in scrambled order (Table 1), served as controls. We injected different concentrations (10, 50, 100, and 200 nM or alternatively: 10, 25, 45, 55, 75, and 100 nM) at a flow rate of either 25 μl/min or 50 μl/min in SPR running buffer (10 mM HEPES/NaOH, pH 7.4, 150 mM NaCl, 10 mM MgCl2, 0.005% Tween-20, 3.4 mM EDTA). In addition, we coated control surfaces with ubiquitin-like-protease 1 as previously described ([Görtemaker et al., 2022]). For kinetic investigation of LWO2 binding to Gtα/Giα, we injected different peptide concentrations in random order. Regeneration of the surface was performed with a basic-detergent cocktail adopted from [Andersson et al. (1999)] containing final concentrations of 12.5 mM of ethanolamine, Na2PO4, piperazine, and glycine set to a pH of 11.75, as well as containing 0.2% sodium dodecyl sulfate. Despite the relatively harsh conditions, regeneration was judged to be slightly incomplete. […] With the conditions used, reproducible data was still obtained. Sensorgrams were evaluated by nonlinear curve fitting applying the global fitting approach (BIAevaluation software 4.1, GE Healthcare). […]

Another data set relates to Gtα/Giα chimera. Description: FRET interaction of dansylated peptides with Gtα/Giα in solution. The data set is classed as binding, European robin (Erithacus rubecula). Conditions: excitation 280 nm; for decrease of fluorescence emission in the presence of Gtα/Giα: FRET, dansylated peptide and Gtα/Giα each 16.7 μM, GDP 10 μM, incubated on ice in the dark 30 min, pH 7.4; for fluorescence emission maximum: dansylated peptide 16.7 μM, 80 mM Hepes pH 7.4, 40 mM KCl, 150 mM NaCl, 10 mM MgCl2. The method, then: Interaction of the Gtα/Giα chimera with peptide LWO2 and the control peptide LWO2-sc was tested by Förster resonance energy transfer (FRET) measurements. We designed an experiment using fluorescence excitation at 280 nm of endogenous Trp residues in Gtα/Giα and peptide and emission of Trp fluorescence at 334 nm that excited the fluorescence dye 5-Dimethylamino-1-naphthalinsulfonyl chloride (dansyl chloride). The emission spectrum of dansyl chloride was recorded between 400 and 550 nm. For this purpose, we coupled dansyl chloride to free amino groups in LWO2 and LWO2-sc. Peptides were solved in H20 bidest (1 mg/ml) and 66 μl of a peptide solution were mixed with 50 μl borat buffer (0.1 M, pH 9.5). Twenty-five μL dansyl chloride (1 mg/ml in acetone) were added and the solutions were incubated at room temperature for 5 h in darkness. Afterwards, we separated non-reacted dansyl chloride, non-reacted peptides and covalently labeled LWO2 or LWO2-sc by reversed phase liquid chromatography (HPLC) using a LiChrospher® 100 RP-18 (5 μm) column (Merck, Germany) in a Hitachi Primaide HPLC system. The column was equilibrated in 0.1% trifluoro-acetic acid (v/v) in H2O bidest. Separation was achieved by applying a gradient from 0.1% trifluoro-acetic acid (v/v) in H2O bidest to 100% acetonitrile with 0.1% trifluoro-acetic acid (v/v) in 55 min. Peaks were detected at 280 nm and the area was used to calculate the coupling yield that was at 84–97% for both peptides. FRET measurements employing the FRET pair intrinsic tryptophan and attached dansyl were performed with a fluorescence spectrometer from photon Technology International. The basic operation principle was essentially as described before ([Behnen et al., 2009]; [Scholten and Koch, 2011]) using the following modifications. Shortly before recording the spectrum, the dansylated LWO2 (or LWO2-sc) containing fraction of the HPLC elution was diluted in fluorescence buffer (80 mM Hepes pH 7.4, 40 mM KCl, 150 mM NaCl, 10 mM MgCl2) at a final concentration of 16.7 μM. After adding the G protein, the mixtures were incubated on ice in the dark for 30 min. During the measurements with the Gtα/Giα, it was present in GDP-bound conformation ([GDP] = 10 μM). The excitation wavelength was set to 280 nm and the emission spectrum was recorded from 400 to 550 nm. Recording and analysis of the data was performed using Photon Technology International software package FELIX32.

Turning to CGAGA-FRVKDGWINPGKFEVWCKF [LWO2-sc], in data set [1] (peptide 100 nM), the “binding to Gtα/Giα (qualitative)” value was “slight decrease in resonance units indicating no binding signal”. For the same substance, the “fluorescence emission of label-free peptide (control)” value with Gtα/Giα chimera (label-free peptide alone or with Gtα/Giα) is given as “No fluorescence emission was also observed”.

With “CGAGA-GSKSQRARAEQVETAQAKAEISVEK [LWO3-sc]”, in data set [1] (peptide 100 nM), the “binding to Gtα/Giα (qualitative)” value was “did not indicate a binding process”.

Turning to “CGAGA-TAKFKKLRHPLNWI [LWO1, peptide representing a cytoplasmic loop of European robin long wavelength opsin]”, in data set [1] (peptide 100 nM), the “binding to Gtα/Giα (qualitative)” value is given as “did not indicate a binding process”.

On to “CGAGAG-AIRAVAAQQKESESTQKAEKEVSR [LWO3, peptide representing the third cytoplasmic loop of European robin LWO]”, for which, in data set [1] (peptide 100 nM), the “binding to Gtα/Giα (qualitative)” value is “slight decrease in RU and a kind of recovery phase; also recorded: did not detect any interaction”. Besides, the “positive response during subsequent buffer flow” value in data set [1] (peptide 100 nM, buffer flow after injection, decreased over time) is “ca. 10 RU”. For the same substance, in data set [1] (peptide 200 nM, Supplementary Figure S1), the “binding to Gtα/Giα (qualitative), 200 nM” value was “no specific binding process occurred”.

As for “CGAGAG-NRQFRNCILQLFGKKVDDGSEVSTSRTEVSSVSNSSGS [LWO4, peptide representing the opsin C-terminus of European robin LWO]”, in data set [1] (peptide 100 nM), the “binding to Gtα/Giα (qualitative)” value is on record as “did not indicate a binding process”.

Consider “dansyl-LWO2-sc: LWO2-sc with dansyl chloride coupled to free amino groups (CGAGAFRVKDGWINPGKFEVWCKF; cysteine pairing not given here; also: dansyl coupled to free amino groups)”, for which, in the data set with Gtα/Giα chimera, the “decrease of fluorescence emission in the presence of Gtα/Giα” value is 9,000 relative fluorescence counts and the fluorescence emission maximum turned out to be 516 nm.

For “dansyl-LWO2: LWO2 with dansyl chloride coupled to free amino groups (CGAGAWERWFVVCKPFGNIKFDGK-NH2; cysteine pairing not given here; also: dansyl coupled to free amino groups)”, in the data set with Gtα/Giα chimera, the “decrease of fluorescence emission in the presence of Gtα/Giα” value was 14,000 relative fluorescence counts and the fluorescence emission maximum is reported as 510 nm.
